Consider 19 compounds from US20120022070A1, “Heat Shock Protein 90 Inhibitors, Methods Of Preparing Same, And Methods For Their Use” (EMORY UNIVERSITY, priority 2008, published 2012).

Like-named read-outs stand apart in the source and are kept apart here. Where only a bound is given, the exact number is not on record here.

Experiment [1] deals with SKBR3 breast cancer cells. Kind of experiment: Cancer cell growth inhibition assay (CellTiter-Blue). Format: cell-based. Conditions: Homo sapiens, SK-BR-3, Table 2, 96 hours. Here is the method: The effects of the compounds on cancer cell growth were determined using the CellTiter-Blue cell viability assay (Promega). CellTiter-Blue® Cell Viability is based on the ability of living cells to convert a redox dye (resazurin) into a fluorescent end product (resorufin).
The SKBR3 breast cancer cells were plated in 384-well microtiter plates (Costar) and allowed to attach overnight. After treatment with either compounds or vehicle (DMSO) for 96 hours, the cells were measured for their viability by CellTiter-Blue. Briefly, 10 μl of CelTiter-Blue were added to each well in 384-well plates and incubated at 37° C. for 4 hours. The fluorescence intensity (FI) was measured using the Analyst HT plate reader (Molecular Devices) with an excitation at 545 nm and emission at 595 nm. The IC50 was calculated as the compound concentration that inhibits cell viability by 50% compared with vehicle control wells. The IC50 values were determined as described above.
(In general: Alamar Blue is a resazurin reagent that responds to reducing activity.)

In experiment [2] the test system is Her2 protein in MCF-7 breast cancer cells. The experiment is described as follows: Cell-based Her2 degradation assay by Western Blot. Conditions: Homo sapiens, read-out: IC50, Her2 degradation WB. From the text:
Addition of Hsp90 inhibitors to cancer cells induces the proteasomal degradation of a subset of proteins involved in signal transduction such as Raf1 kinase, Akt and certain transmembrane tyrosine kinases such as Her2. Thus, Her2 degradation in cells is a functional read-out of Hsp90 inhibition. Correlation between Hsp90 binding and Her2 degradation in cancer cells is indicative of a selective biological effect in these cells via Hsp90.
A Western blot-based assay was used to measure the cellular level of Her2 protein in MCF-7 breast cancer cell lysates collected after 24 hours of compound treatment. […] Then 2×10^5 cells were seeded in 24 well plates in 500 μl PRMI1640 medium and allowed to attach overnight. The compounds were dissolved in DMSO, added to the wells, and incubated for 24 hours. The cells were washed using ice-cold phosphate-buffered saline (PBS) and lysed in 1% NP40 lysis buffer (10 mM HEPES, pH 7.4, 150 mM NaCl, 1% Nonident P-40, 5 mM Pyrophosphate, 5 mM NaF, 2 mM Orthovanadate, 10 ug/ml Aprotinin, 10 ug/ml Leupeptin, 1 mM PMSF). After boiling with 6×SDS sample buffer, the cell lysates were separated by SDS-PAGE and transferred to nitrocellulose membrane. The membranes were blocked with 5% milk in tris-buffered saline buffer.
(In western blotting, separated proteins are transferred to a membrane and probed.)

The test system of experiment [3] is Her2 protein in SKBr3 breast cancer cells. Kind of experiment: Cell-based Her2 degradation assay by Cytoblot. Conditions: Homo sapiens, SK-BR-3, Table 2, values with asterisk, 24 hours. Here is the method: Cellular Her2 level after compound treatment was also monitored by microtiter-based Her2 degradation assay, Cytoblot assay (Huezo, Vilenchik et al. Chem. Biol., 2003, 10, 629-634). This is a cell-based assay that enables the quantitative analysis of intracellular levels of Her2 protein.
The human breast cancer cell lines SKBr3 were maintained in RPMI1640 medium supplemented with 10% FBS. 3000 cells in 100 μl of growth medium were plated per well in black, clear-bottom microtiter plates (Corning) and allowed to attach for at least 24 hours at 37° C. and 5% CO2. Compounds at different doses or vehicle (DMSO) were carefully added to the wells and incubated for 24 hours. The cells were washed twice with ice-cold Tris buffer saline (TBS) containing 0.1% Tween 20 (TBST) and fixed with ice-cold methanol. After washing with TBST, the plate was incubated at RT for 1 hour with SuperBlock (Pierce 37535) and overnight at 4° C. with the anti-Her-2 antibody (Santa Cruz Biotechnology). The plate was then washed with TBST and incubated at RT for 2 hours with an anti-rabbit HRP-linked antibody (Sigma A0545). The chemiluminescent substrate solution (Pierce 38040) was added and the plate was read 5 minutes later in an Analyst HT plate reader (Molecular Devices). Luminescence readings resulting from compound-treated cells versus untreated cells (vehicle treated) were quantified and plotted against compound concentrations to give the IC50 values (defined as concentration of compound required to degrade 50% of total Her2).

Experiment [4] has as its system tumor specific Hsp90 (NCI-N417 cell lysate). The experiment is described as follows: Hsp90 binding FP competition assay. Conditions: Table 2, GM-cy3B 5 nM. Also on record: species or system human. From the text:
There are several assays that have been developed to identify novel Hsp90 inhibitors based on the interaction of small molecules with recombinant Hsp90 protein, either yeast or human. To measure a therapeutically significant state of Hsp90, an FP assay that uses human cancer cell lysates instead of recombinant protein (Du, Moulick et al. J. Biomol. Screen, 2007, 12, 915-24) was utilized. It probes the interaction of small molecules with tumor-specific Hsp90 and may therefore lead to inhibitors that are not only selective for cancer cells but also specific for a particular malignancy.
The dose-response effect of the compounds was tested in Hsp90 binding FP competition assays to obtain the IC50 of the compounds. The Hsp90 FP competition assay was performed in 384-well black plate using the small-cell lung carcinoma (SCLC) cell line NCI-N417 as a source of tumor specific Hsp90 and the Cy3B-labeled geldanamycin (GM-cy3B) as the FP ligand. The compound was dissolved in DMSO and added at several concentrations to the reaction buffer containing both GM-cy3B (5 nM) and NCI-N417 cell lysate (1 μg/well) in a final volume of 50 μL. Free GM-cy3B (5 nM) and bound GM-cy3B with NCI-N417 cell lysate (5 nM GM-cy3B and 1 μg/well of NCI-N417 cell lysate) were included as controls in each plate. After incubating at room temperature for 2 to 16 hours, the polarization values were measured and expressed as millipolarization (mP) units using Analyst HT plate reader (Molecular Devices). The competitive efficiency of the compounds were expressed as a percentage of control and calculated according to the following equation:
% of control=((mPc−mPf)/(mPb−mPf))×100
where mPc is the recorded mP from compound wells, mPf is the average recorded mP from GM-cy3B-only wells, and mPb is the average recorded mP from wells containing both GM-cy3B and NCI-N417 lysate. IC50 values were determined using a nonlinear regression analysis as implemented in Prism 4.0 (Graphpad Software).

Where [5] appears, read: MCF7, Table 2, values without asterisk, MCF-7 cells, 24 hours.

Broadly, the IC50 is the midpoint of a concentration-inhibition curve. As for `O=C1C=C(N2CCC(Cc3ccccc3)CC2)c2ccccc2C1=O` [Compound 45], the IC50 was 950 nM in experiment [1], 1250 to 2500 nM in experiment [2] (setting [5]), 2.22 µM in experiment [3] and 230 nM in experiment [4].

For `CC(C)CN(CC(C)C)C1=CC(=O)C(=O)c2ccccc21` [Compound 49], the IC50 is 2750 nM in experiment [1], 2500 to 5000 nM in experiment [2] (setting [5]), 18.6 µM in experiment [3] and 1860 nM in experiment [4].

`COc1ccccc1NC1=CC(=O)C(=O)c2ccccc21` [Compound 50]: the IC50 in experiment [1] is 1240 nM; in experiment [2] (setting [5]), 1250 to 2500 nM; in experiment [3] it was 3.82 µM; in experiment [4] it was 90 nM.

With `COc1ccc(NC2=CC(=O)C(=O)c3ccccc32)cc1` [Compound 51], the IC50 is 16000 nM in experiment [1]; 1250 to 2500 nM in experiment [2] (MCF7, 24 h); 3.62 µM in experiment [3]; 70 nM in experiment [4].

Take `COc1ccc(NC2=CC(=O)C(=O)c3ccccc32)c(OC)c1` [Compound 53]: the IC50 in experiment [1] was 1420 nM; in experiment [2] (setting [5]), 2500 to 5000 nM; in experiment [3], 3.94 µM; in experiment [4], 130 nM.

Take `COc1cc(NC2=CC(=O)C(=O)c3ccccc32)cc(OC)c1` [Compound 54]: the IC50 in experiment [1] was 7460 nM; in experiment [2] (setting [5]), 2500 to 5000 nM; in experiment [3] it was 4.17 µM; in experiment [4], 10 nM.

For `O=C1C=C(Nc2ccc3c(c2)OCO3)c2ccccc2C1=O` [Compound 55], the IC50 in experiment [1] was 3170 nM; in experiment [2] (setting [5]), 2500 to 5000 nM; in experiment [3] it was 3.76 µM; in experiment [4], 40 nM.

For the compound `O=C1C=C(N2CCN(Cc3cccc(C(F)(F)F)c3)CC2)c2ccccc2C1=O` [Compound 56], the IC50 in experiment [1] turned out to be 300 nM; in experiment [3], 1.9 µM; in experiment [4] it was 530 nM.

With `O=C1C=C(N2CCN(c3cccc4ccccc34)CC2)c2ccccc2C1=O` [Compound 57], the IC50 in experiment [1] came to 220 nM; in experiment [3], 3.9 µM; in experiment [4] it was 890 nM.

For the compound `O=C1C=C(N2CCC(O)(c3ccc(Cl)cc3)CC2)c2ccccc2C1=O` [Compound 58], the IC50 in experiment [1] was determined as 430 nM; in experiment [3] it was 1.68 µM; in experiment [4], 540 nM.

On to `O=C1C=C(N2CCN(Cc3cccc4ccccc34)CC2)c2ccccc2C1=O` [Compound 59], for which the half-inhibitory concentration (IC50) in experiment [1] worked out at 620 nM; in experiment [3], 4.27 µM; in experiment [4] it was 770 nM.

Take `COc1cc(NC2=CC(=O)C(=O)c3ccccc32)cc(OC)c1OC` [Compound 60]: the results for the IC50 in experiment [1], in experiment [3] and in experiment [4] were 2420 nM, 8.58 µM and 180 nM, respectively.

In the case of `COc1ccc(NC2=CC(=O)C(=O)c3ccccc32)cc1OC` [Compound 61], the IC50 is 3180 nM in experiment [1], 4.83 µM in experiment [3] and 390 nM in experiment [4].

Turning to `O=C1C=C(N2CCNCC2)c2ccccc2C1=O` [Compound 62], the IC50 in experiment [1] is more than 20000 nM; in experiment [3], 22.7 µM; in experiment [4] it was 1550 nM.

As to `O=C1C=C(N2CCN(S(=O)(=O)c3cc(Cl)cc(Cl)c3O)CC2)c2ccccc2C1=O` [Compound 63], the IC50 in experiment [1] is more than 20000 nM; in experiment [3] it was 26.1 µM; in experiment [4] it was 1310 nM.

Regarding `COc1ccc(S(=O)(=O)N2CCN(C3=CC(=O)C(=O)c4ccccc43)CC2)cc1OC` [Compound 64], the results for the half-maximal inhibitory concentration (IC50) in experiment [1], in experiment [3] and in experiment [4] were more than 20000 nM, 29.1 µM and 570 nM, respectively.

Consider `O=C1C=C(Nc2cc3c(cc2Br)OCO3)c2ccccc2C1=O` [Compound 65], for which the IC50 was 3660 nM in experiment [1], 15.3 µM in experiment [3] and 530 nM in experiment [4].

With `COc1cc(Br)c(NC2=CC(=O)C(=O)c3ccccc32)cc1OC` [Compound 66], the values for the IC50 in experiment [1], in experiment [3] and in experiment [4] were 10900 nM, 22.4 µM and 610 nM, respectively.

As to `Cc1cc(C)nc(NC2=CC(=O)C(=O)c3ccccc32)c1` [Compound 67], the IC50 in experiment [1] is 210 nM; in experiment [3] it was 11.4 µM; in experiment [4], 640 nM.
